Paper PMC11434342, “Novel Autotaxin Inhibitor ATX-1d Significantly Enhances Potency of Paclitaxel—An In Silico and In Vitro Study” (Molecules, 2024)

Target: T1, autotaxin (ATX) (Homo sapiens, UniProt Q13822)
T1 construct: gene ENPP2; human recombinant ATX (hATX)
Experiment: biochemical
Design: Inhibition of hydrolysis of fluorogenic lysophospholipid substrate FS-3 by recombinant human autotaxin, fluorescence read-out
Conditions: read-out: % inhibition in ATX assay at 10 µM
Description: Human recombinant ATX (hATX) was purified as previously described. The enzymatic activity of ATX was assessed by measuring the hydrolysis of the synthetic lipid-like FRET-based substrate FS-3 from Echelon Biosciences. Compounds predicted to have potential inhibitory effects through molecular docking were initially screened at a concentration of 10 μM. The reaction mixtures were prepared in 60 μL volumes and loaded into triplicate wells of black-wall 96-well plates. The assay buffer consisted of 50 mM Tris, 140 mM NaCl, 5 mM KCl, 1 mM CaCl2, 1 mM MgCl2, and 10 μM BSA, with the pH adjusted to 8.0. Each assay contained 4 nM ATX and 1 μM FS-3. The test compounds were diluted in an assay buffer and tested in technical triplicates. […] Fluorescence readings were taken at 2 min intervals over 1 h using excitation and emission wavelengths of 485 and 538 nm. Fluorescence data were collected as relative fluorescence units (RFUs) and averaged for the triplicate samples. A compound was considered an experimentally validated hit if it caused more than 50% inhibition of FS-3 hydrolysis at 10 µM concentration. For dose–response studies, nonlinear regression analysis was performed using GraphPad Prism (GraphPad Software, version 10.0.2 (232), San Diego, CA, USA). A variable four-parameter slope model was applied to fit the data, allowing for determining the Hill slope and interpolation of the IC50 ± SD. Fluorescence measurements were conducted using the CLARIOstar Plus plate reader from BMG Labtech (BMG Labtech, Ortenberg, Baden-Württemberg, Germany). Inhibition assays targeting the ATX-mediated hydrolysis of FS-3 were performed with 45 selected compounds, each at a fixed concentration of 10 μM. Compounds were classified as experimentally validated hits if they achieved more than 50% inhibition of the hydrolysis of the model lysophospholipase D substrate FS-3. From this initial screening, only one compound, ATX-1d, met this criterion (Supplementary Information, Table S1). ATX-1d was then subjected to a dose–response assay to determine its IC50 value (Figure 4). […] BMP-22, a previously validated inhibitor of ATX, was used as a control. The second replicate is shown in the Supplementary Information, Figure S2.

In order of rising inhibition at 10 µM:
1. COC(=O)C1(c2ccccc2)OC(c2cccc(F)c2)C2C(=O)N(c3ccccc3)C(=O)C21 (centres unmarked) [ATX-3i]  -37.4%
2. COC(=O)C1(c2ccc(Cl)cc2)OC(c2ccc(F)cc2F)C2C(=O)N(c3ccccc3)C(=O)C21 (centres unmarked) [ATX-3c]  -35.9%
3. COC(=O)C1(c2ccccc2)OC(c2cccc(OC)c2)C2C(=O)N(c3ccccc3)C(=O)C21 (centres unmarked) [ATX-3g]  -30.1%
4. COC(=O)C(OCCCCOC1=CC(=O)CC(C)(C)C1)c1ccc(C(C)(C)C)cc1 (centres unmarked) [ATX-4c]  -19.6%
5. CCOC(=O)C1C(C(=O)OCC)C12C(=O)N(C(C)=O)c1ccc(C)cc12 (centres unmarked) [ATX-5j]  -10.2%
6. CCN1C(=O)C2C(c3cccc(F)c3)OC(C(=O)OC)(c3ccc(C(C)(C)C)cc3)C2C1=O (centres unmarked) [ATX-3h]  -5.76%
7. CCOC(=O)C1C(C(=O)OCC)C12C(=O)N(C(C)=O)c1ccccc12 (centres unmarked) [ATX-5c]  -4.52%
8. CCOC(=O)C1C(C(=O)OCC)C12C(=O)N(C(=O)OC(C)(C)C)c1ccc(Br)cc12 (centres unmarked) [ATX-5g]  -0.48%
9. CCOC(=O)/C(=C1\C(=O)N(C)C(=O)C1(c1ccccn1)C1CC(=O)N(C)C1=O)c1ccc(C)cc1 (centres unmarked) [ATX-1f]  -0.36%
10. CCC1=N[C@](C(=O)OC)(c2ccccc2)[C@@H]2C(=O)N(Cc3ccccc3)C(=O)C12 (some centres unmarked) [ATX-2g]  3.38%
11. CCN1C(=O)CC(C2(c3ccccn3)C(=O)N(CC)C(=O)/C2=C(\C(=O)OC)c2ccccc2)C1=O (centres unmarked) [ATX-1b]  3.59%
12. CCN1C(=O)C2C(C)=N[C@](C(=O)OC)(c3cccc(OC)c3)[C@@H]2C1=O (some centres unmarked) [ATX-2d]  4.61%
13. COC(=O)C1(c2ccc(Cl)cc2)OC(c2cccc(OC)c2)C2C(=O)N(c3ccccc3)C(=O)C21 (centres unmarked) [ATX-3f]  5.8%
14. CCN1C(=O)CC(C2(c3ccccn3)C(=O)N(CC)C(=O)/C2=C(\C(=O)OC)c2cccc(OC)c2)C1=O (centres unmarked) [ATX-1h]  7.6%
15. CCN1C(=O)CC(C2(c3ccccn3)C(=O)N(CC)C(=O)/C2=C(\C(=O)OC)c2ccc(F)cc2)C1=O (centres unmarked) [ATX-1i]  10%
16. CCC1=N[C@](C(=O)OC)(c2ccc(Br)cc2)[C@@H]2C(=O)N(CC)C(=O)C12 (some centres unmarked) [ATX-2e]  10.1%
17. COC(=O)C(OCCCCOC1=CC(=O)CC(C)(C)C1)c1cccc(OC)c1 (centres unmarked) [ATX-4b]  12.6%
18. CCC1=N[C@](C(=O)OC)(c2cccc(OC)c2)[C@@H]2C(=O)N(C)C(=O)C12 (some centres unmarked) [ATX-2c]  13%
19. COC(=O)C(OCCCCOC1=CC(=O)CC(C)(C)C1)c1cccc(C(F)(F)F)c1 (centres unmarked) [ATX-4i]  15.2%
20. COC(=O)C1(c2cccc(OC)c2)OC(c2cccc(Cl)c2)C2C(=O)N(Cc3ccccc3)C(=O)C21 (centres unmarked) [ATX-3j]  16.2%
21. COC(=O)C(OCCCCOC1=CC(=O)CC(C)(C)C1)c1ccc(Br)cc1 (centres unmarked) [ATX-4a]  18.7%
22. CCC1=N[C@](C(=O)OC)(c2ccc(Br)cc2)[C@@H]2C(=O)N(C)C(=O)C12 (some centres unmarked) [ATX-2a]  19%
23. CCC1=N[C@](C(=O)OC)(c2ccc(Br)cc2)[C@@H]2C(=O)N(Cc3ccccc3)C(=O)C12 (some centres unmarked) [ATX-2b]  24.9%
24. COC(=O)C(OCCCCOC1=CC(=O)CC(C)(C)C1)c1ccccc1 (centres unmarked) [ATX-4g]  32.6%
25. Cc1ccccc1C(OCCCCOC1=CC(=O)CC(C)(C)C1)C(=O)OCc1ccccc1 (centres unmarked) [ATX-4e]  33.6%
26. COC(=O)C(OCCCCOC1=CC(=O)CC(C)(C)C1)c1cccc(Cl)c1 (centres unmarked) [ATX-4f]  40.7%
27. COC(=O)C(OCCCCOC1=CC(=O)CC(C)(C)C1)c1cccc(F)c1 (centres unmarked) [ATX-4j]  41.4%
28. COC(=O)/C(=C1\C(=O)N(C)C(=O)C1(c1ccccn1)C1CC(=O)N(C)C1=O)c1ccc(C(C)(C)C)cc1 (centres unmarked) [ATX-1a]  42.5%

Target: T1, autotaxin (ATX)
Experiment: FS-3 fluorogenic substrate hydrolysis, dose-response with purified recombinant ATX ([…])
Type: biochemical
Conditions: not given

In the case of CCCCCCCCCCCCCCCc1ccc(CP(=O)(O)O)cc1 [BMP-22, reference compound], the IC50 is reported as 200 ± 100 nM.
